Measurements as given in ChEMBL document CHEMBL4334509, “Garcinol and Related Polyisoprenylated Benzophenones as Topoisomerase II Inhibitors: Biochemical and Molecular Modeling Studies” (J Nat Prod, 2019).
Active and inactive are the calls of the source. No cut-off for these calls is given here.

Legend:
DNA topoisomerase 2-beta [1] = target: T1, DNA topoisomerase 2-beta (Homo sapiens, UniProt Q02880); test: Inhibition of human topoisomerase 2beta-mediated relaxation of supercoiled pSG483 DNA at 12.5 to 200 uM after 30 mins by ethidium bromide staining based agarose gel electrophoresis method
DNA topoisomerase 2-beta [2] = target: T1, DNA topoisomerase 2-beta; test: Inhibition of human topoisomerase 2beta-mediated DNA cleavage at 12.5 to 200 uM using supercoiled pSG483 as substrate after 30 mins by ethidium bromide staining based gel electrophoresis method
[3] = target: T2, DNA topoisomerase 2-alpha (Homo sapiens, UniProt P11388); test: Inhibition of human topoisomerase 2alpha-mediated relaxation of supercoiled pSG483 DNA at 12.5 to 200 uM after 30 mins by ethidium bromide staining based agarose gel electrophoresis method
[4] = target: T2, DNA topoisomerase 2-alpha; test: Inhibition of human topoisomerase 2alpha-mediated DNA cleavage at 12.5 to 200 uM using supercoiled pSG483 as substrate after 30 mins by ethidium bromide staining based gel electrophoresis method
[5] = target: T2, DNA topoisomerase 2-alpha; test: (§1) Mixed-type inhibition of topoisomerase 2alpha ATPase activity (unknown origin) assessed as apparent Vmax per mg protein at 20 uM using salmon sperm DNA as substrate measured every 30 secs for 90 mins in presence of ATP by pyruvate kinase/lactate dehydrogenase enzyme coupled assay (reference value: 136.7 +/- 14.7 mM/min)
[6] = target: T2, DNA topoisomerase 2-alpha; test: as §1, with “25” for “20”
DNA topoisomerase 2-beta [7] = target: T1, DNA topoisomerase 2-beta; test: Inhibition of human topoisomerase 2beta-mediated DNA cleavage assessed as formation of nicking in DNA at 200 uM using supercoiled pSG483 as substrate after 30 mins by ethidium bromide based gel electrophoresis method
[8] = target: T2, DNA topoisomerase 2-alpha; test: Inhibition of human topoisomerase 2alpha-mediated relaxation of supercoiled pSG483 DNA after 30 mins by ethidium bromide staining based agarose gel electrophoresis method
DNA = test: Induction of plasmid DNA (unknown origin) intercalation at 7.81 to 500 uM after 30 mins by ethidium bromide staining based agarose gel electrophoresis method; assay type: nucleic-acid assay
DNA topoisomerase 2-beta [9] = target: T1, DNA topoisomerase 2-beta; test: Inhibition of human topoisomerase 2beta-mediated relaxation of supercoiled pSG483 DNA after 30 mins by ethidium bromide staining based agarose gel electrophoresis method
[10] = target: T2, DNA topoisomerase 2-alpha; test: Poison activity at human topoisomerase 2alpha assessed as linear DNA formation at 12.5 to 200 uM after 30 mins by ethidium bromide staining based agarose gel electrophoresis method
[11] = target: T2, DNA topoisomerase 2-alpha; test: as §1, with “50” for “20”
[12] = compound: CC(C)=CCC[C@@]1(C)[C@H](CC=C(C)C)C[C@]2(CC=C(C)C)C(=O)[C@@]1(CC=C(C)C)C(=O)C(C(=O)c1ccc(O)c(O)c1)=C2O; test: (§2) Mixed-type inhibition of topoisomerase 2alpha ATPase activity (unknown origin) assessed as apparent Km at 5 uM using salmon sperm DNA as substrate measured every 30 secs for 90 mins in presence of ATP by pyruvate kinase/lactate dehydrogenase enzyme coupled assay (reference value: 0.4 +/- 0.1 mM); conditions: Homo sapiens
[13] = compound: CC(C)=CCC/C(C)=C/C[C@@]12C[C@H](CC=C(C)C)C(C)(C)[C@@](CC=C(C)C)(C(=O)C(C(=O)c3ccc(O)c(O)c3)=C1O)C2=O; test: as §2; conditions: Homo sapiens
[14] = compound: CC(C)=CCC/C(C)=C/C[C@@]12C[C@H](CC=C(C)C)C(C)(C)[C@@](CC=C(C)C)(C(=O)C(C(=O)c3ccc(O)c(O)c3)=C1O)C2=O; test: Mixed-type inhibition of topoisomerase 2alpha ATPase activity (unknown origin) assessed as apparent Km at 20 uM using salmon sperm DNA as substrate measured every 30 secs for 90 mins in presence of ATP by pyruvate kinase/lactate dehydrogenase enzyme coupled assay (reference value: 0.4 +/- 0.1 mM); conditions: Homo sapiens
[15] = compound: C=C(C)[C@H](CC=C(C)C)C[C@]12C[C@H](CC=C(C)C)C(C)(C)[C@](CC=C(C)C)(C(=O)C(C(=O)c3ccc(O)c(O)c3)=C1O)C2=O; test: Mixed-type inhibition of topoisomerase 2alpha ATPase activity (unknown origin) assessed as apparent Km at 50 uM using salmon sperm DNA as substrate measured every 30 secs for 90 mins in presence of ATP by pyruvate kinase/lactate dehydrogenase enzyme coupled assay (reference value: 0.4 +/- 0.1 mM); conditions: Homo sapiens
[16] = compound: CC(C)=CCC[C@@]1(C)[C@H](CC=C(C)C)C[C@]2(CC=C(C)C)C(=O)[C@@]1(CC=C(C)C)C(=O)C(C(=O)c1ccc(O)c(O)c1)=C2O; test: (§3) Mixed-type inhibition of topoisomerase 2alpha ATPase activity (unknown origin) assessed as apparent Km at 25 uM using salmon sperm DNA as substrate measured every 30 secs for 90 mins in presence of ATP by pyruvate kinase/lactate dehydrogenase enzyme coupled assay (reference value: 0.4 +/- 0.1 mM); conditions: Homo sapiens
[17] = compound: C=C(C)[C@H](CC=C(C)C)C[C@]12C[C@H](CC=C(C)C)C(C)(C)[C@](CC=C(C)C)(C(=O)C(C(=O)c3ccc(O)c(O)c3)=C1O)C2=O; test: as §3; conditions: Homo sapiens
[18] = compound: CC(C)=CCC[C@@]1(C)[C@H](CC=C(C)C)C[C@]2(CC=C(C)C)C(=O)[C@@]1(CC=C(C)C)C(=O)C(C(=O)c1ccc(O)c(O)c1)=C2O; test: (§4) Mixed-type inhibition of topoisomerase 2alpha ATPase activity (unknown origin) assessed as apparent Km at 10 uM using salmon sperm DNA as substrate measured every 30 secs for 90 mins in presence of ATP by pyruvate kinase/lactate dehydrogenase enzyme coupled assay (reference value: 0.4 +/- 0.1 mM); conditions: Homo sapiens
[19] = compound: CC(C)=CCC/C(C)=C/C[C@@]12C[C@H](CC=C(C)C)C(C)(C)[C@@](CC=C(C)C)(C(=O)C(C(=O)c3ccc(O)c(O)c3)=C1O)C2=O; test: as §4; conditions: Homo sapiens
[20] = compound: C=C(C)[C@H](CC=C(C)C)C[C@]12C[C@H](CC=C(C)C)C(C)(C)[C@](CC=C(C)C)(C(=O)C(C(=O)c3ccc(O)c(O)c3)=C1O)C2=O; test: as §4; conditions: Homo sapiens

T1 sequence (Q02880 whole entry): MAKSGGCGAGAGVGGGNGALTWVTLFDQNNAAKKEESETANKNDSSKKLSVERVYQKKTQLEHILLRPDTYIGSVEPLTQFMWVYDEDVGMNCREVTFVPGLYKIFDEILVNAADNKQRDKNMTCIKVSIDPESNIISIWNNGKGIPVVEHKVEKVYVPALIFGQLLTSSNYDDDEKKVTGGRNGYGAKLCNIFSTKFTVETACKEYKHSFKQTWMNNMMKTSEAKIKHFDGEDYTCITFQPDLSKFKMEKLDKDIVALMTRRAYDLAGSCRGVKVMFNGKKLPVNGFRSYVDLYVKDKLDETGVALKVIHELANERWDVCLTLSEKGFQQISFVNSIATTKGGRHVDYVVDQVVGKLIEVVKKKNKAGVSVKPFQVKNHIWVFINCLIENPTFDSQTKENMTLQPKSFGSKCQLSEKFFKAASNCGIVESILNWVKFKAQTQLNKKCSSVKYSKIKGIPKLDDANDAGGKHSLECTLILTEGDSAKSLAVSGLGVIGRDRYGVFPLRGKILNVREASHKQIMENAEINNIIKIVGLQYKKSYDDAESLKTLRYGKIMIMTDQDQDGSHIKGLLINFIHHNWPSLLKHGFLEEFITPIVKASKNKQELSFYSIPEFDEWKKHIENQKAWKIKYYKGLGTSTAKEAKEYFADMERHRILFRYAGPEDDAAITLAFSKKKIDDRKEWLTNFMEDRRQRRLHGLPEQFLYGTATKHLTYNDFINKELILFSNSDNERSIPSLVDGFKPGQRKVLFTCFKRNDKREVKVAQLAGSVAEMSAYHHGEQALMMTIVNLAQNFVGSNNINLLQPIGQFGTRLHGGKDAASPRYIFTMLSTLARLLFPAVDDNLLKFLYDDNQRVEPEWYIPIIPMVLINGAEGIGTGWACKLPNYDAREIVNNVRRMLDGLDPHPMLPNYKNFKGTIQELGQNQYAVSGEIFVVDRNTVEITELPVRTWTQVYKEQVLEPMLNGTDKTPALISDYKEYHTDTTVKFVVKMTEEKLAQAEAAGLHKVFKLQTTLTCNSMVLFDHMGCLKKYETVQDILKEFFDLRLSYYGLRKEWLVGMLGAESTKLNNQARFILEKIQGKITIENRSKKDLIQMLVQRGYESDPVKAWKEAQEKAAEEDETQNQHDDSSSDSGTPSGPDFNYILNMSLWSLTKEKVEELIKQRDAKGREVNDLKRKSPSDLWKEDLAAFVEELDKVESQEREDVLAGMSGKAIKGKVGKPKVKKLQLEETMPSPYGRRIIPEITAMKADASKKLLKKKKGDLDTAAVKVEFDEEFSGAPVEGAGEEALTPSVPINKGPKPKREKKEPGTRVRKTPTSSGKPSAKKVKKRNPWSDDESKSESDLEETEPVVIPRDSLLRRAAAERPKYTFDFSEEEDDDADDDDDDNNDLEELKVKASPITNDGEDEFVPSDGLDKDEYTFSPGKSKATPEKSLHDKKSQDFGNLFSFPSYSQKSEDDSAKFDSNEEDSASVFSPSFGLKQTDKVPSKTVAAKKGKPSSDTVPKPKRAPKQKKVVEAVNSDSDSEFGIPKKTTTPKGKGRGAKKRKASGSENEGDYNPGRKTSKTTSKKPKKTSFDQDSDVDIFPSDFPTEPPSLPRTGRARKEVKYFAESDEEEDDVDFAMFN

Question: With `CC(C)=CCC/C(C)=C/C[C@@]12C[C@H](CC=C(C)C)C(C)(C)[C@@](CC=C(C)C)(C(=O)C(C(=O)c3ccc(O)c(O)c3)=C1O)C2=O` as the molecule, how does the inhibition (DNA topoisomerase 2-beta [1]) read?
Answer: Active

Question: What about the inhibition (DNA topoisomerase 2-beta [2]) of the same molecule?
Answer: Active

Question: What about the inhibition [3] of the same molecule?
Answer: Active

Question: What about the inhibition [4] of the same molecule?
Answer: Active

Question: And the Vmax(app) [5]?
Answer: 53.6 mM/min

Question: With `CC(C)=CCC[C@@]1(C)[C@H](CC=C(C)C)C[C@@]2(CC=C(C)C)C(=O)c3c(oc4cc(O)c(O)cc4c3=O)[C@]1(CC=C(C)C)C2=O` as the molecule, how does the inhibition (DNA topoisomerase 2-beta [1]) read?
Answer: Active

Question: And the inhibition (DNA topoisomerase 2-beta [2])?
Answer: Active

Question: And the inhibition [3]?
Answer: Active

Question: And the inhibition [4]?
Answer: Active

Question: Which results are given for `CC(C)=CCC[C@@]1(C)[C@H](CC=C(C)C)C[C@]2(CC=C(C)C)C(=O)[C@@]1(CC=C(C)C)C(=O)C(C(=O)c1ccc(O)c(O)c1)=C2O`?
Answer: inhibition (DNA topoisomerase 2-beta [1]): Active; inhibition (DNA topoisomerase 2-beta [2]): Active; inhibition [3]: Active; inhibition [4]: Active; Vmax(app) [6]: 93 mM/min

Question: `CC(C)=CCC/C(C)=C/C[C@]12C[C@H](CC=C(C)C)C(C)(C)[C@](CC=C(C)C)(C1=O)c1oc3cc(O)c(O)cc3c(=O)c1C2=O` was tested. Which inhibition (DNA topoisomerase 2-beta [1]) did it give?
Answer: Active

Question: And the inhibition [3]?
Answer: Active

Question: And the inhibition (DNA topoisomerase 2-beta [7])?
Answer: inactive

Question: What does the source list for `C=C(C)[C@H](CC=C(C)C)C[C@]12C[C@H](CC=C(C)C)C(C)(C)[C@](CC=C(C)C)(C(=O)C(C(=O)c3ccc(O)c(O)c3)=C1O)C2=O`?
Answer: IC50 [8]: 101 µM; Activity (DNA): inactive; IC50 (DNA topoisomerase 2-beta [9]): 101 µM; Vmax(app) [6]: 94 mM/min; Activity [10]: inactive; Vmax(app) [11]: 84.7 mM/min

Question: `CC(C)=CCC[C@@]1(C)[C@H](CC=C(C)C)C[C@]2(CC=C(C)C)C(=O)[C@@]1(CC=C(C)C)C(=O)c1c2oc2cc(O)c(O)cc2c1=O` was tested. Which inhibition (DNA topoisomerase 2-beta [1]) did it give?
Answer: Active

Question: And the inhibition (DNA topoisomerase 2-beta [2])?
Answer: Active

Question: And the inhibition [3]?
Answer: Active

Question: And the inhibition [4]?
Answer: Active

B1: DNA topoisomerase 2-alpha (Homo sapiens), P11388 (protein)
chain: MEVSPLQPVNENMQVNKIKKNEDAKKRLSVERIYQKKTQLEHILLRPDTYIGSVELVTQQMWVYDEDVGINYREVTFVPGLYKIFDEILVNAADNKQRDPKMSCIRVTIDPENNLISIWNNGKGIPVVEHKVEKMYVPALIFGQLLTSSNYDDDEKKVTGGRNGYGAKLCNIFSTKFTVETASREYKKMFKQTWMDNMGRAGEMELKPFNGEDYTCITFQPDLSKFKMQSLDKDIVALMVRRAYDIAGSTKDVKVFLNGNKLPVKGFRSYVDMYLKDKLDETGNSLKVIHEQVNHRWEVCLTMSEKGFQQISFVNSIATSKGGRHVDYVADQIVTKLVDVVKKKNKGGVAVKAHQVKNHMWIFVNALIENPTFDSQTKENMTLQPKSFGSTCQLSEKFIKAAIGCGIVESILNWVKFKAQVQLNKKCSAVKHNRIKGIPKLDDANDAGGRNSTECTLILTEGDSAKTLAVSGLGVVGRDKYGVFPLRGKILNVREASHKQIMENAEINNIIKIVGLQYKKNYEDEDSLKTLRYGKIMIMTDQDQDGSHIKGLLINFIHHNWPSLLRHRFLEEFITPIVKVSKNKQEMAFYSLPEFEEWKSSTPNHKKWKVKYYKGLGTSTSKEAKEYFADMKRHRIQFKYSGPEDDAAISLAFSKKQIDDRKEWLTNFMEDRRQRKLLGLPEDYLYGQTTTYLTYNDFINKELILFSNSDNERSIPSMVDGLKPGQRKVLFTCFKRNDKREVKVAQLAGSVAEMSSYHHGEMSLMMTIINLAQNFVGSNNLNLLQPIGQFGTRLHGGKDSASPRYIFTMLSSLARLLFPPKDDHTLKFLYDDNQRVEPEWYIPIIPMVLINGAEGIGTGWSCKIPNFDVREIVNNIRRLMDGEEPLPMLPSYKNFKGTIEELAPNQYVISGEVAILNSTTIEISELPVRTWTQTYKEQVLEPMLNGTEKTPPLITDYREYHTDTTVKFVVKMTEEKLAEAERVGLHKVFKLQTSLTCNSMVLFDHVGCLKKYDTVLDILRDFFELRLKYYGLRKEWLLGMLGAESAKLNNQARFILEKIDGKIIIENKPKKELIKVLIQRGYDSDPVKAWKEAQQKVPDEEENEESDNEKETEKSDSVTDSGPTFNYLLDMPLWYLTKEKKDELCRLRNEKEQELDTLKRKSPSDLWKEDLATFIEELEAVEAKEKQDEQVGLPGKGGKAKGKKTQMAEVLPSPRGQRVIPRITIEMKAEAEKKNKKKIKNENTEGSPQEDGVELEGLKQRLEKKQKREPGTKTKKQTTLAFKPIKKGKKRNPWSDSESDRSSDESNFDVPPRETEPRRAATKTKFTMDLDSDEDFSDFDEKTDDEDFVPSDASPPKTKTSPKLSNKELKPQKSVVSDLEADDVKGSVPLSSSPPATHFPDETEITNPVPKKNVTVKKTAAKSQSSTSTTGAKKRAAPKGTKRDPALNSGVSQKPDPAKTKNRRKRKPSTSDDSDSNFEKIVSKAVTSKKSKGESDDFHMDFDSAVAPRAKSVRAKKPIKYLEESDEDDLF
Question: What does the source list for B1?
Answer: Km [12]: 600 µM; Km [13]: 600 µM; Km [14]: 1600 µM; Km [15]: 800 µM; Km [16]: 1000 µM; Km [17]: 700 µM; Km [18]: 800 µM; Km [19]: 900 µM; Km [20]: 300 µM
